# Patent US6355799B1, “Substituted benzene compounds, process for their preparation, and herbicidal and defoliant compositions containing them” (ISK Americas Incorporated, priority 1997, dated 2002)
# Columns and labels:
# Type in all cases: in vivo
# [1] = test system: lambsquarters (Chenopodium album, CHEAL); assay: Post-emerge test, greenhouse herbicide activity screening; conditions: post-emerge, 14 days after application, rating scale 0-100
# Method in brief: (§1)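 Herbicidal damage is scored 0 (none) to 100 (complete plant death) two weeks after a simulated field spray. Rates span 15–1000 g ai/ha, delivered in acetone at 187 l/ha. For post-emergence treatments, plants have 2–3 leaves and the spray carries 0.25% v/v non-ionic surfactant.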
# [2] = test system: green foxtail (Setaria viridis, SETVI); assay: as above; conditions: post-emerge, 14 days after application, rating scale 0-100
# Method in brief: as §1
# [3] = test system: large crabgrass (Digitaria sanguinalis, DIGSA); assay: as above; conditions: post-emerge, 14 days after application, rating scale 0-100
# Method in brief: as §1
# [4] = test system: sicklepod (Cassia obtusifolia, CASOB); assay: as above; conditions: post-emerge, 14 days after application, rating scale 0-100
# Method in brief: as §1
# [5] = test system: barnyardgrass (Echinochloa crus-galli, ECHCG); assay: as above; conditions: post-emerge, 14 days after application, rating scale 0-100
# Method in brief: as §1
# [6] = test system: redroot pigweed (Amaranthus retroflexus, AMARE); assay: as above; conditions: post-emerge, 14 days after application, rating scale 0-100
# Method in brief: as §1
# [7] = test system: velvetleaf (Abutilon theophrasti, ABUTH); assay: as above; conditions: post-emerge, 14 days after application, rating scale 0-100
# Method in brief: as §1
# [8] = test system: johnsongrass (Sorghum halepense, SORHA); assay: as above; conditions: post-emerge, 14 days after application, rating scale 0-100
# Method in brief: as §1
# [9] = test system: ivyleaf morningglory (Ipomoea hederacea, IPOHE); assay: as above; conditions: post-emerge, 14 days after application, rating scale 0-100
# Method in brief: as §1
# [10] = test system: redroot pigweed (Amaranthus retroflexus, AMARE); assay: Pre-emerge test, greenhouse herbicide activity screening; conditions: rated 14 days after application, 0 = no damage, 100 = complete death
# Method in brief: as §1
# [11] = test system: field corn (Zea mays L., var. Dekalb 535, CORN); assay: Post-emerge test, crop safety; conditions: post-emerge, 14 days after application, rating scale 0-100
# Method in brief: (§2)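 Applied at 15–1000 g ai/ha from acetone in 187 l/ha spray volume. Post-emergence applications included 0.25% v/v non-ionic surfactant and reached plants sown 8–21 days before. Pre-emergence applications were incorporated by surface watering. Efficacy or crop damage was rated on a 0–100 scale after 14 days.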
# [12] = test system: upland rice (Oryza sp., var. Tebonnet, RICE); assay: Post-emerge test, crop safety; conditions: post-emerge, 14 days after application, rating scale 0-100
# Method in brief: as §2
# [13] = test system: lambsquarters (Chenopodium album, CHEAL); assay: Pre-emerge test, greenhouse herbicide activity screening; conditions: rated 14 days after application, 0 = no damage, 100 = complete death
# Method in brief: as §2
# [14] = test system: green foxtail (Setaria viridis, SETVI); assay: as above; conditions: rated 14 days after application, 0 = no damage, 100 = complete death
# Method in brief: as §2
# [15] = test system: large crabgrass (Digitaria sanguinalis, DIGSA); assay: as above; conditions: rated 14 days after application, 0 = no damage, 100 = complete death
# Method in brief: as §2
# [16] = test system: sicklepod (Cassia obtusifolia, CASOB); assay: as above; conditions: rated 14 days after application, 0 = no damage, 100 = complete death
# Method in brief: as §2
# [17] = test system: barnyardgrass (Echinochloa crus-galli, ECHCG); assay: as above; conditions: rated 14 days after application, 0 = no damage, 100 = complete death
# Method in brief: as §2
# [18] = test system: velvetleaf (Abutilon theophrasti, ABUTH); assay: as above; conditions: rated 14 days after application, 0 = no damage, 100 = complete death
# Method in brief: as §2
# [19] = test system: johnsongrass (Sorghum halepense, SORHA); assay: as above; conditions: rated 14 days after application, 0 = no damage, 100 = complete death
# Method in brief: as §2
# [20] = test system: ivyleaf morningglory (Ipomoea hederacea, IPOHE); assay: as above; conditions: rated 14 days after application, 0 = no damage, 100 = complete death
# Method in brief: as §2
# [21] = test system: field corn (Zea mays L., var. Dekalb 535, CORN); assay: Pre-emerge test, crop safety; conditions: rated 14 days after application, 0 = no damage, 100 = complete death
# Method in brief: (§3)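 Compounds in acetone were track-sprayed at 187 l/ha, 15–1000 g ai/ha, onto sandy loam pots. Pre-emerge seeds were sown one day before spraying, with surface watering afterwards. Post-emerge plants were at the 2–3 leaf stage and sprayed with 0.25% v/v non-ionic surfactant. Injury was rated 0–100 at 14 days.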
# [22] = test system: upland rice (Oryza sp., var. Tebonnet, RICE); assay: Pre-emerge test, crop safety; conditions: rated 14 days after application, 0 = no damage, 100 = complete death
# Method in brief: as §3
smiles,measurement,setting,value
COc1c(Cl)cc(F)c(-n2c(=O)cc(C(F)(F)F)n(C)c2=O)c1NC(=O)C=Cc1ccccc1 [2-78],phytotoxicity rating CHEAL,[1]; 63 g ai/ha,100
same,phytotoxicity rating CHEAL,[1]; 250 g ai/ha,100
same,phytotoxicity rating SETVI,[2]; 63 g ai/ha,30
same,phytotoxicity rating SETVI,[2]; 250 g ai/ha,30
same,phytotoxicity rating DIGSA,[3]; 63 g ai/ha,0
same,phytotoxicity rating DIGSA,[3]; 250 g ai/ha,0
same,phytotoxicity rating CASOB,[4]; 63 g ai/ha,70
same,phytotoxicity rating CASOB,[4]; 250 g ai/ha,100
same,phytotoxicity rating ECHCG,[5]; 63 g ai/ha,10
same,phytotoxicity rating ECHCG,[5]; 250 g ai/ha,10
same,phytotoxicity rating AMARE,[6]; 63 g ai/ha,100
same,phytotoxicity rating AMARE,[6]; 250 g ai/ha,100
same,phytotoxicity rating ABUTH,[7]; 63 g ai/ha,100
same,phytotoxicity rating ABUTH,[7]; 250 g ai/ha,100
same,phytotoxicity rating SORHA,[8]; 63 g ai/ha,0
same,phytotoxicity rating SORHA,[8]; 250 g ai/ha,10
same,phytotoxicity rating IPOHE,[9]; 63 g ai/ha,80
same,phytotoxicity rating IPOHE,[9]; 250 g ai/ha,100
same,"Pre-emerge Herbicidal Activity, phytotoxicity rating (0-100), AMARE",[10]; 63 g ai/ha,100
same,"Pre-emerge Herbicidal Activity, phytotoxicity rating (0-100), AMARE",[10]; 250 g ai/ha,100
same,phytotoxicity rating CORN,[11]; 63 g ai/ha,25
same,phytotoxicity rating CORN,[11]; 250 g ai/ha,30
same,phytotoxicity rating RICE,[12]; 63 g ai/ha,50
same,phytotoxicity rating RICE,[12]; 250 g ai/ha,65
same,"Pre-emerge Herbicidal Activity, phytotoxicity rating (0-100), CHEAL",[13]; 63 g ai/ha,100
same,"Pre-emerge Herbicidal Activity, phytotoxicity rating (0-100), CHEAL",[13]; 250 g ai/ha,100
same,"Pre-emerge Herbicidal Activity, phytotoxicity rating (0-100), SETVI",[14]; 63 g ai/ha,90
same,"Pre-emerge Herbicidal Activity, phytotoxicity rating (0-100), SETVI",[14]; 250 g ai/ha,100
same,"Pre-emerge Herbicidal Activity, phytotoxicity rating (0-100), DIGSA",[15]; 63 g ai/ha,30
same,"Pre-emerge Herbicidal Activity, phytotoxicity rating (0-100), DIGSA",[15]; 250 g ai/ha,100
same,"Pre-emerge Herbicidal Activity, phytotoxicity rating (0-100), CASOB",[16]; 63 g ai/ha,100
same,"Pre-emerge Herbicidal Activity, phytotoxicity rating (0-100), CASOB",[16]; 250 g ai/ha,100
same,"Pre-emerge Herbicidal Activity, phytotoxicity rating (0-100), ECHCG",[17]; 63 g ai/ha,10
same,"Pre-emerge Herbicidal Activity, phytotoxicity rating (0-100), ECHCG",[17]; 250 g ai/ha,100
same,"Pre-emerge Herbicidal Activity, phytotoxicity rating (0-100), ABUTH",[18]; 63 g ai/ha,100
same,"Pre-emerge Herbicidal Activity, phytotoxicity rating (0-100), ABUTH",[18]; 250 g ai/ha,100
same,"Pre-emerge Herbicidal Activity, phytotoxicity rating (0-100), SORHA",[19]; 63 g ai/ha,10
same,"Pre-emerge Herbicidal Activity, phytotoxicity rating (0-100), SORHA",[19]; 250 g ai/ha,80
same,"Pre-emerge Herbicidal Activity, phytotoxicity rating (0-100), IPOHE",[20]; 63 g ai/ha,20
same,"Pre-emerge Herbicidal Activity, phytotoxicity rating (0-100), IPOHE",[20]; 250 g ai/ha,100
same,"Pre-emerge phytotoxicity rating (0-100), crop damage, CORN",[21]; 63 g ai/ha,0
same,"Pre-emerge phytotoxicity rating (0-100), crop damage, CORN",[21]; 250 g ai/ha,10
same,"Pre-emerge phytotoxicity rating (0-100), crop damage, RICE",[22]; 63 g ai/ha,40
same,"Pre-emerge phytotoxicity rating (0-100), crop damage, RICE",[22]; 250 g ai/ha,95
